Like-named read-outs stand apart in the source and are kept apart here.
Legend:
pENSA = pENSA level by immunofluorescence (described method: in vitro kinase analysis with GST-tag-MASTL and His-tag-ENSA); type: cell-based; conditions: for pENSA (%) Immunofluor ecense (1 µM): compound 1 µM; for IC50: read-out: IC50(nM) pENSA
Summary of the method: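 In vitro kinase reaction using recombinant GST-tagged MASTL with His-tagged ENSA as substrate; phosphorylated ENSA (pENSA) serves as read-out of MASTL activity. Cell lines named: MCF7 breast cancer and MCF10A.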

[1] = system: MCF7 breast cancer cell lines; assay: Cell viability analysis, WST-8 assay, MCF7; conditions: for viability at 1.25 µM / IC50 / viability at 1 µM: Homo sapiens, MCF7, 72 h; for viability at 1.25 µM: read-out: Cell viability (%) WST-8, MCF7, footnote a: concentration 1.25 µM, 72 hours; for viability at 1 µM: read-out: Cell viability (%) WST-8, MCF7 (1 µM), compound 1 µM, 72 hours
Description: (§1) MCF7 breast cancer cell lines and MCF10A normal breast cancer cell lines were treated with serial dilutions of the compounds of the present invention ranging from 1 µM to 15.63 nM for 72 hours. Cell viability was measured by the WST-8 assay (Cyto XTM cell viability assay kit; LPS solution, Daejeon, Korea) according to the manufacturer's instructions.

in vitro = conditions: human, mcf10a cells
Description: as §1

[2] = biological target: T1, Recombinant GST-TAG-MASTL (Homo sapiens, UniProt Q96GX5); assay: HTRF-based kinase assay (HTRF KinEASE assay kit); type: biochemical; conditions: for activity at 1 µM: read-out: MASTL activity (%) HTRF (1 µM)
T1 construct: GST; purchased Thermo Fisher Scientific
T1 sequence (Q96GX5 1-879): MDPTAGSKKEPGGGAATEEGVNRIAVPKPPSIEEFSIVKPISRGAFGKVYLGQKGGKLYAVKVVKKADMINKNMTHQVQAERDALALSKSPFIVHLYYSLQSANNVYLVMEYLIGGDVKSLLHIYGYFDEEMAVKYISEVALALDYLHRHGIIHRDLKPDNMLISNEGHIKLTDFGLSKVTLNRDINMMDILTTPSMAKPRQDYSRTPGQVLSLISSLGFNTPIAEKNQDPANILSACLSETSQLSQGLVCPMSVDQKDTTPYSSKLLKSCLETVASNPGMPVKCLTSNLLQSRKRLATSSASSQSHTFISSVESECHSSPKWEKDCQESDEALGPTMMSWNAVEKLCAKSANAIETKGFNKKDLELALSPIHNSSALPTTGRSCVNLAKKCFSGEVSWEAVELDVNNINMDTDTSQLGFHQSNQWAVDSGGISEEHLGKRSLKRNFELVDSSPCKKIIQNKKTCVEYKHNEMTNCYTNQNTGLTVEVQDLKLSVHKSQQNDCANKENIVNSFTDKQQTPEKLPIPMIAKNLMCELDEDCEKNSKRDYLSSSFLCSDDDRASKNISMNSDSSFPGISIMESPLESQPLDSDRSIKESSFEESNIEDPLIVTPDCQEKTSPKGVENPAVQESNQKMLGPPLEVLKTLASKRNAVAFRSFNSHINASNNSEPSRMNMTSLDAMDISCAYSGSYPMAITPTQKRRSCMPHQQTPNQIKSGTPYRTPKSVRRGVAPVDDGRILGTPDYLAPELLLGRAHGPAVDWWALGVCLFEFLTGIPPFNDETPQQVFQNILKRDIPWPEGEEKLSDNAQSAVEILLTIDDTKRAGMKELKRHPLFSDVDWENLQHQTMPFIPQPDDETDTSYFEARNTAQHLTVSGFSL
From the text: Recombinant GST-TAG-MASTL (Thermo Fisher Scientific, MA, USA) was used for HTRF-based kinase assays. The HTRF KinEASE assay kit (CisBio, MA, USA) was used according to the manufacturer's instructions.

[3] = read-out: IC50 Cell viability (MCF7)
[4] = footnote b: concentration 10 µM, read-out: MASTL activity (%) HTRF
[5] = HTRF, read-out: IC50(nM) MASTL activity

| Compound | pENSA (%) Immunofluor ecense (1 µM) (pENSA) [%] | viability at 1 µM [1] [%] | viability at 1 µM (in vitro) [%] | activity at 1 µM ([2]; compound 1 µM) [%] | also measured |
| --- | --- | --- | --- | --- | --- |
| CS(=O)(=O)Cc1ccc(Nc2nc(Nc3cc(C4CC4)[nH]n3)c3ccccc3n2)cc1 [compound 4f, M^4-(5-cyclopropyl-1G-pyrazol-3-yl)-M^2-(4-((methylsulfonyl)methyl)phenyl)quinazoline-2,4-diamine] | 50.5 | – | – | – | IC50 (pENSA): 899 nM; viability at 1.25 µM [1]: 94.5%; IC50 [1, 3]: 2300 nM; viability at 1.25 µM (in vitro): 33%; activity at 10 µM [2, 4]: 29% |
| NS(=O)(=O)c1ccc(Nc2nc(Nc3cc(C4CC4)[nH]n3)c3ccccc3n2)cc1 [compound 4g, 4-((4-((5-cyclopropyl-1G-pyrazol-3-yl)amino)quinazolin-2-yl)amino)benzenesulfonamide] | 10.4 | – | – | – | IC50 (pENSA): 344 nM; viability at 1.25 µM [1]: 85.3%; IC50 [1, 3]: 2700 nM; viability at 1.25 µM (in vitro): 9.3%; IC50 [2]: 189 nM; activity at 10 µM ([2]; read-out: MASTL activity (%) HTRF): 18.6% |
| CN(C)S(=O)(=O)c1ccc(Nc2nc(Nc3cc(C4CC4)[nH]n3)c3ccccc3n2)cc1 [compound 4j, 4-((4-((5-cyclopropyl-1G-pyrazol-3-yl)amino)quinazolin-2-yl)amino)-M,M-dimethylbenzenesulfonamide] | 5.2 | – | – | – | IC50 (pENSA): 420 nM; viability at 1.25 µM [1]: 22.8%; IC50 ([1]; read-out: IC50(nM) Cell viability (MCF7)): 713 nM; selectivity for breast cancer cells over normal cells in the cell viability assay ([1]; MCF7 versus MCF10A): selectively inhibit only breast cancer cells; viability at 1.25 µM (in vitro): 21.6%; IC50 [2, 5]: 527 nM; activity at 1.25 µM ([2]; footnote a: concentration 1.25 µM, read-out: MASTL activity (%) HTRF): 27% |
| FC(F)(F)c1cc(Nc2nc(Nc3cc(C4CC4)[nH]n3)c3ccccc3n2)ccc1Cl [compound 4k, M^2-(4-chloro-3-(trifluoromethyl)phenyl)-M^4-(5-cyclopropyl-1G-pyrazol-3-yl)quinazoline-2,4-diamine] | 105 | – | – | – | viability at 1.25 µM [1]: 80.8%; viability at 1.25 µM (in vitro): 115%; activity at 10 µM [2, 4]: 59.2% |
| Cc1ccc(-c2nc3ccccc3s2)cc1Nc1nc(Nc2cc(C3CC3)[nH]n2)c2ccccc2n1 [compound 4l, M^2-(5-(benzo[c]thiazol-2-yl)-2-methylphenyl)-M^4-(5-cyclopropyl-1G-pyrazol-3-yl)quinazoline-2,4-diamine] | 88.6 | 100 | 118 | 81.5 | – |
| c1ccc2sc(-c3ccc(Nc4nc(Nc5cc(C6CC6)[nH]n5)c5ccccc5n4)cc3)nc2c1 [compound 4m, M^2-(4-(benzo[c]thiazol-2-yl)phenyl)-M^4-(5-cyclopropyl-1G-pyrazol-3-yl)quinazoline-2,4-diamine] | 88.8 | 110 | 85.8 | 73 | – |
| COC(=O)c1ccc(Nc2nc(Nc3cc(C4CC4)[nH]n3)c3ccccc3n2)cc1 [compound 4o, Methyl 4-((4-((5-cyclopropyl-1G-pyrazol-3-yl)amino)quinazolin-2-yl)amino)benzoate] | 19.2 | 53.4 | 79.4 | 53.8 | IC50 (pENSA): 680 nM |
| CC(C)(C)OC(=O)c1ccc(Nc2nc(Nc3cc(C4CC4)[nH]n3)c3ccccc3n2)cc1 [compound 4p, sdqs-butyl 4-((4-((5-cyclopropyl-1G-pyrazol-3-yl)amino)quinazolin-2-yl)amino)benzoate] | 56.2 | 100 | 86.8 | 58 | – |
| CC(C)(C)OC(=O)Cc1ccc(Nc2nc(Nc3cc(C4CC4)[nH]n3)c3ccccc3n2)cc1 [compound 4q, sdqs-butyl 2-(4-((4-((5-cyclopropyl-1G-pyrazol-3-yl)amino)quinazolin-2-yl)amino)phenyl)acetate] | 53.6 | 107 | 98.8 | 76.1 | – |
| O=C(O)c1ccc(Nc2nc(Nc3cc(C4CC4)[nH]n3)c3ccccc3n2)cc1 [compound 4r, 4-((4-((5-cyclopropyl-1G-pyrazol-3-yl)amino)quinazolin-2-yl)amino)benzoic acid] | 12 | 98.8 | 84.2 | – | IC50 (pENSA): 988 nM; activity at 1 µM [2]: 56.6% |
| CC(C)(C)OC(=O)N1CCC2(CC1)CCN(c1nc(Nc3cc(C4CC4)[nH]n3)c3ccccc3n1)CC2 [compound 6b, sdqs-butyl 9-(4-((5-cyclopropyl-1G-pyrazol-3-yl)amino)quinazolin-2-yl)-3,9-diazaspiro[5.5]undecane-3-carboxylate] | 98.2 | 116 | 122 | 43.5 | – |
| CC(C)(C)OC(=O)N1CC2(CCN(c3nc(Nc4cc(C5CC5)[nH]n4)c4ccccc4n3)CC2)C1 [compound 6c, sdqs-butyl 7-(4-((5-cyclopropyl-1G-pyrazol-3-yl)amino)quinazolin-2-yl)-2,7-diazaspiro[3.5]nonane-2-carboxylate] | 90.5 | 109 | 129 | 32.9 | IC50 [2, 5]: 796 nM |
| C1=C(c2ccccc2)CCN(c2nc(Nc3cc(C4CC4)[nH]n3)c3ccccc3n2)C1 [compound 6e, M-(5-cyclopropyl-1G-pyrazol-3-yl)-2-(4-phenyl-3,6-dihydropyridin-1(2G)-yl)quinazolin-4-amine] | 97 | 90.9 | 91.4 | 43.3 | IC50 [2, 5]: 569 nM |
| FC(F)(F)c1ccc(C2=CCN(c3nc(Nc4cc(C5CC5)[nH]n4)c4ccccc4n3)CC2)cc1 [compound 6f, M-(5-cyclopropyl-1G-pyrazol-3-yl)-2-(4-(4-(trifluoromethyl)phenyl)-3,6-dihydropyridin-1(2G)-yl)quinazolin-4-amine] | 110 | 91.9 | 102 | 55.8 | – |
| FC(F)(F)c1cccc(C2=CCN(c3nc(Nc4cc(C5CC5)[nH]n4)c4ccccc4n3)CC2)c1 [compound 6g, M-(5-cyclopropyl-1G-pyrazol-3-yl)-2-(4-(3-(trifluoromethyl)phenyl)-3,6-dihydropyridin-1(2G)-yl)quinazolin-4-amine] | 113 | 95 | 104 | 41.4 | – |
| C1=C(Cc2ccccc2)CCN(c2nc(Nc3cc(C4CC4)[nH]n3)c3ccccc3n2)C1 [compound 6h, 2-(4-benzyl-3,6-dihydropyridin-1(2G)-yl)-M-(5-cyclopropyl-1G-pyrazol-3-yl)quinazolin-4-amine] | 93 | 89.7 | 59.8 | 46 | IC50 [2, 5]: 995 nM |
| C1=C(c2cccc3ccccc23)CCN(c2nc(Nc3cc(C4CC4)[nH]n3)c3ccccc3n2)C1 [compound 6i, M-(5-cyclopropyl-1G-pyrazol-3-yl)-2-(4-(naphthalen-1-yl)-3,6-dihydropyridin-1(2G)-yl)quinazolin-4-amine] | 97.2 | 113 | 122 | 74.6 | – |
| Fc1ccccc1C1=CCN(c2nc(Nc3cc(C4CC4)[nH]n3)c3ccccc3n2)CC1 [compound 6k, M-(5-cyclopropyl-1G-pyrazol-3-yl)-2-(4-(2-fluorophenyl)-3,6-dihydropyridin-1(2G)-yl)quinazolin-4-amine] | 82 | 91 | 90.8 | 40.6 | IC50 [2, 5]: 406 nM |

— patent EP4786466A1, “QUINAZOLINE DERIVATIVE, SALT THEREOF, AND PHARMACEUTICAL COMPOSITION COMPRISING SAME AS ACTIVE INGREDIENT” (Korea Research Institute of Chemical Technology, priority 2023, dated 2025)
